The record followed here is patent US20150051210A1, “Tyrosine Kinase Inhibitor Combinations and their Use” (Novartis AG, priority 2012, published 2015).

The subject of one experiment is MKN-45 cells. Briefly: MKN-45 Dual Inhibition: reversal of rescue with selective inhibitors, CellTiter-Glo cell viability. The following applies: for activity on cell viability (reversal of rescue): MET-dependent MKN-45, rhFGF7 or rhNRG-1 250 ng/ml, 96 h, Cpd. A/Cpd. B 100 nM, BGJ398 500 nM, Lapatinib 1.5 μM, FIG. 3, FIG. 4. It counts as cell-based. Here is the method: MKN-45 Secretome screen: MKN-45 cells were plated in white, tissue-culture treated 384-well plates (Greiner) at 3000 cells/20 μl DMEM +10% FBS/well and allowed to attach overnight. Supernatant from library-transfected HEK293T/17 cells was then transferred to the MKN-45 cells at 30 μl/well using a Biomek FX liquid handler (Beckman Coulter) with pipetting speeds reduced to minimize disturbance of the HEK293T/17 monolayer. As positive controls, the purified proteins rhEGF and rhNRG1-31 (R&D Systems) were added to isolated wells on each plate for a final concentration of 150 ng/ml; supernatant from mock-transfected HEK293T/17 wells were transferred as neutral controls. Following addition of supernatants and purified protein controls, Cpd. A diluted in DMEM was added at 10 μl/well for a final assay concentration of 100 nM. After 96 hours incubation, growth was measured using the CellTiter-Glo luminescent cell viability assay system (Promega). In brief, 30 μl CellTiter-Glo reagent was added to all wells, then incubated for 15 minutes at room temperature before reading luminescence on a Viewlux plate reader (Perkin Elmer). (FIG. 1)
MKN-45 Dual Inhibition: MKN-45 cells were seeded at 3000 cells/20 μl/well in 384-well plates and incubated overnight. Solutions of rhFGF7 and rhNRG-1 were prepared in DMEM+10%FBS, then added at 30 μl/well to achieve a final concentration of 250 ng/ml (one purified protein per treatment). The following single and dual inhibition treatments were prepared in DMEM and added at […]: Cpd. A, Cpd. B, BGJ398, Lapatinib, Cpd. A and BGJ398, Cpd. B and BGJ398, Cpd. A and Lapatinib, Cpd. B and Lapatinib. Final concentrations for each compound, whether single or combined, were as follows: 100 nM for Cpd. A and Cpd. B, 500 nM for BGJ398 and 1.5 μM for Lapatinib. After 96 hours cell viability was measured by CellTiter-Glo as previously described. (FIG. 3, FIG. 4)
Background: In ATP-based viability assays light output follows the ATP content of the culture.

The subject of experiment [1] is phosphorylation of MET, ERK1/2, AKT, FRS2 in MKN-45. Briefly: Western blots of protein phosphorylation in MKN-45 cells. It counts as cell-based. The procedure:
(§1) Western Blots (Figures not Shown) MKN-45 and RT-112 cells were treated in 6-well plates for 2 hours and 18 hours in the presence or absence of purified protein (rhFGF7, rhNRG1-31, or rhHGF), and/or inhibitor (Cpd. B, Cpd. A, BGJ398). Following wash with ice-cold PBS, cells were lysed with RIPA buffer (Thermo) containing phosphatase (Thermo) and proteinase (Roche) inhibitor cocktails. Total protein was quantified by bicinchoninic protein assay (Pierce). Aliquots of 20 μg were resolved by electrophoresis on NuPAGE SDS-PAGE 4-12% BIS-Tris gels before transfer to nitrocellulose membranes. Membranes were blocked for one hour at room temperature before overnight incubation at 4° C. with the following primary antibodies (source rabbit, 1:1000 final dilution): anti-phospho-Akt (Ser473), anti-phospho-MET (Tyr1234/1235), anti-phospho-MAPK/ERK(1/2) (Thr202/Tyr204), anti-AKT, anti-MAPK/Erk(1/2), and anti-α/β-Tubulin . Anti-MET was probed at 1:800 final dilution An internal antibody was used for phospho-FRS2(Y346) (1:1500 dilution). Membranes were then washed 3 times in PBS+0.1% Tween before addition of secondary antibody, IRDye 680LT goat anti-rabbit IgG , dilution 1:15000. After one hour at room temperature, membranes were washed and bands were visualized using an Odyssey Infrared Imager.
A general note: Immunoblotting shows a protein as a band on a membrane.

In experiment [2] the test system is phosphorylation of MET, FRS2, ERK, AKT in RT-112. In words: Western blots of protein phosphorylation in RT-112 cells. It counts as cell-based. The procedure:
as §1

The subject of experiment [3] is ERK and AKT phosphorylation in KYM-1, MG-63, Hs-683 cells. In words: Western blots in KYM-1, MG-63 and Hs-683 cells (data not shown). It counts as cell-based. The following applies: 24 h. Here is the method: The indicated cell lines were seeded on 6-well-plates at a density of 500000 cells/well, left for 24 h to attach and then treated with a final concentration of 1 nM of the indicated compounds for another 24 h. Growth media were then removed, cells were washed twice with ice-cold PBS and lysed in 50 mmol/L Tris pH 7.5, 120 mmol/L NaCl, 20 mmol/L NaF, 1 mmol/L EDTA, 6 mmol/L EGTA, 1 mmol/L Benzamidin, 0.2 mmol/L PMSF, 100 mmol/L sodium vanadate, 1% NP-40. The protein concentration of cleared lysates was determined with the BCA Protein Assay Kit. 80 μg protein of each sample was separated by SDS-PAGE on NuPage 4-12% Tris-Bis Midi gels, transferred to a PVDF-membrane, and probed with antibodies as listed above. After washing and incubation with secondary HRP-linked antibodies, bands were visualized using ECL detection reagent.

The test system of experiment [4] is patient-derived non-small cell lung cancer xenograft LXFL 1121. Briefly: In vivo anti-tumor efficacy study in xenograft LXFL 1121. The following applies: for anti-tumor effect compared to vehicle control / Δ tumor volume: Cpd. B 10 mg/kg bid/qd; for anti-tumor effect compared to vehicle control: BGJ398 40 mg/kg qd orally, 18 days; for Δ tumor volume: end values, BGJ398 40 mg/kg qd, control C 309.6. Here is the method:
The in vivo anti-tumor efficacy study in the patient-derived non-small cell lung cancer xenograft LXFL 1121 was carried out. Xenografts were grown subcutaneously in nude mice. Eight tumor-bearing mice each were treated with either vehicle control, Cpd. B alone, BGJ398 alone or both drugs in combination at the doses and frequencies indicated. Note that frequency of Cpd. […] Tumor volumes were measured on the indicated days and synergy of the combination treatment was assessed by the method of Clarke, R., Breast Cancer Res. Treat., […].
Mice bearing xenografts derived from this model were randomized to 4 groups that were then treated with a vehicle control, Cpd. B as single agent, BGJ398 as single agent or a combination of both drugs. Cpd. B was commenced at a dose of 10 mg/kg twice daily. BGJ398 was given orally at a dose of 40 mg/kg once daily, and the same regimen for both drugs was used in combination. […] The study was continued in this setup until day 18.
The significance of combination data was assessed using the method presented by Clark (2), which can estimate interactions from limited data. For compound A, B or the combination AB (with control group C), the end values are collected. Antagonism is predicted when the calculation AB/C>A/C×B/C, additive AB/C=A/C×B/C, synergistic interactions are predicted to occur when […].

Setting [5] is: Δ tumor volume relative to control group C.

Each structure is given as a SMILES string.

With `CCN1CCN(c2ccc(Nc3cc(N(C)C(=O)Nc4c(Cl)c(OC)cc(OC)c4Cl)ncn3)cc2)CC1` [BGJ398, 3-(2,6-dichloro-3,5-dimethoxy-phenyl)-1-{6-[4-(4-ethylpiperazin-1-yl)-phenylamino]-pyrimidin-4-yl}-1-methyl-urea], in the experiment with MKN-45 cells, the “activity on cell viability (reversal of rescue)” value is “not sufficient”. The “reversal of ligand-mediated rescue of proliferation” value in the experiment with MKN-45 cells (MKN-45 in presence of MET inhibitor Cpd. A or Cpd. B, FIGS. 3, 4) is on record as “selectively reverse rescue mediated by FGF7”. Also, the “reversal of FGF7 rescue effect on FRS2 and ERK1/2 phosphorylation” value in experiment [1] (MKN-45, MET inhibitor plus FGF7) is given as “reversed”. In experiment [2] (RT-112, absence of ligands), the “FRS2 and ERK phosphorylation” value is “reduced both FRS2 and ERK phosphorylation”. Moreover, the “inhibition of own target as single agent (Western blot)” value in experiment [3] is recorded as “effectively inhibited its own target”. Also, in experiment [4], the “anti-tumor effect compared to vehicle control” value is reported as “strong tumor growth inhibition resulting in stable disease” and the Δ tumor volume was −16.6. In addition, the B/C in experiment [4] (setting [5]) is −0.054.

For the compound `CNC(=O)c1ccc(-c2cnc3ncc(Cc4ccc5ncccc5c4)n3n2)cc1F` [Cpd. B, 2-fluoro-N-methyl-4-[(7-quinolin-6-yl-methyl)-imidazo[1,2-b]triazin-2-yl]benzamide], the “activity on cell viability (reversal of rescue)” value in the experiment on MKN-45 cells is given as “active”. Moreover, in experiment [1] (MKN-45, absence of added ligands), the “effect on phosphorylation of several proteins (MET, ERK1/2, AKT, FRS2)” value was “profound effect”. The “prevention of HGF rescue of ERK phosphorylation” value in experiment [2] (RT-112, BGJ398 plus HGF, simultaneous addition) is listed as “prevented this rescue effect”. Further, the MET phosphorylation entry in experiment [2] (RT-112, absence of ligands) is “specifically inhibited MET phosphorylation”. For the same compound, the “inhibition of own target as single agent (Western blot)” value in experiment [3] is recorded as “effectively inhibited its own target”. In experiment [4], the “anti-tumor effect compared to vehicle control” value is recorded as “very modest, statistically not significant anti-tumor effect” and the Δ tumor volume was determined as 333.6. The A/C in experiment [4] (setting [5]) is given as 1.078.
